Series [1] is described as follows: Microsomal stability (rat). The class given is in vitro ADME. As to conditions: rat microsomes.
Series [2] deals with Stage III-V gametocytes (blood stage P. falciparum parasites). Nature of the series: In vitro drug activity on gametocytes (AlamarBlue viability assay). The class given is cell-based, Plasmodium falciparum. As to conditions: for EC50: read-out: Gametocyte EC50. As for the experimental part: Cell culture. Asexual parasites of P. falciparum strain 3D7 were cultured as described previously [Trager W, et al., Journal of Parasitology 2005, 91: 484-486], Stage III-V gametocytes were selected and enriched with 3-day treatment with 50 mM N-acetylglucosamine (NAG) and the following Percoll density gradient centrifugation after gametocyte production [Tanaka T Q, et al., Molecular and Biochemical Parasitology, 2011, 111: 160-163], Gametocytes of HB3 and Dd2 strains were produced and then set up for assay in a similar process. HepG2 cells (ATCC, cat. no. 77400) were cultured in 175-cm^2 tissue culture flasks with 30 ml growth medium at 37° C. in a 5% CO2 humidified atmosphere. Growth medium was made with Dulbecco's Modified Eagle Medium with 10% fetal bovine serum (FBS). Growth medium was replaced every other day and cells were passed at 75% confluence.
Compound screening experiments were performed as previously described [Tanaka T Q et al., Molecular and Biochemical Parasitology, 2013, 3188: 20-25], Briefly, 2.5 μl/well incomplete medium was dispensed into each well of 1,536-well plates using the Multidrop Combi followed by 23 nl compound transferring using the NX-TR Pintool (WAKO Scientific Solutions, San Diego, Calif.). 2.5 μl/well of gametocytes was dispensed with a seeding density of 20,000 cells/well using the Multidrop Combi. The assay plates were incubated for 72 h at 37° C. with 5% CO2. After addition of 5 μl/well of 2× AlamarBlue dye (Life Technologies, cat. no. DALI 100), the plates were incubated for 24 h at 37° C. with 5% CO2 and were read in a fluorescence detection mode (Ex=525 nm, Em=598 nm) on a ViewLux plate reader (PerkinElmer).
Stage III-V gametocytes (blood stage P. falciparum parasites) were enriched with treatment with 50 mM N-acetylglucosamine (NAG) and Percoll density gradient centrifugation as described previously^1. Briefly, 2.5 μl/well incomplete medium was dispensed into each well of 1,536-well plates using the Multidrop Combi followed by 23 nl compound transfer using the NX-TR Pintool (WAKO Scientific Solutions, San Diego, Calif.). Then, 2.5 μl/well of gametocytes was dispensed with a seeding density of 20,000 cells/well using the Multidrop Combi. The assay plates were incubated for 72 h at 37° C. with 5% CO2. After addition of 5 μl/well of 2× AlamarBlue dye (Life Technologies, cat. no. DALI 100), the plates were incubated for 24 h at 37° C. with 5% CO2 and then were read in a fluorescence detection mode (Ex=525 nm, Em=598 nm) on a ViewLux plate reader (PerkinElmer).
For orientation: The colour change of resazurin is a common sign of viable cells or microbes.

Series [3] is described as follows: Solubility at pH 7.4. It counts as physicochemical.
The test system of series [4] is Asexual parasites of P. falciparum strain 3D7. Nature of the series: In vitro drug activity on asexual parasites (SYBR Green assay). It counts as cell-based, Plasmodium falciparum. Summed up:
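3D7 parasites at 0.5% parasitemia and 2% hematocrit were exposed to drugs (DMSO ≤0.5%) for 72 h under standard culture conditions, in duplicate. After freeze-thaw lysis, SYBR Green I lysis buffer was added for 30 min at room temperature, and fluorescence was read at 490/520 nm.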

For series [5], the target named is mTOR (Homo sapiens, UniProt P42345). Nature of the series: mTOR activity (no method described). It counts as biochemical.

Take `C[C@@H]1CN(C(=O)c2ccc(-n3c(=O)ccc4cnc5ccc(-c6ccc(Cl)cc6)cc5c43)cc2)C[C@H](C)O1` [Compound 101]: the “Microsomal Stability (rat) T1/2” value in series [1] came to 4.5 min. Besides, the values for the EC50 in series [2] and in series [4] were 305 nM and 107 nM, respectively. Also, the “Sol @ pH 7.4” value in series [3] is less than 1.0 ug/mL. Also, the mTOR in series [5] came out at 1780 nM.

For `Cc1cc(C(=O)N2CCOCC2)ccc1-n1c(=O)ccc2cnc3ccc(-c4ccc(Cl)cc4)cc3c21` [Compound 110], in series [1], the “Microsomal Stability (rat) T1/2” value turned out to be 2.2 min. Besides, the EC50 – broadly, the concentration at which the effect is half-maximal – in series [2] turned out to be 139 nM; in series [4], 40.8 nM. Also, in series [3], the “Sol @ pH 7.4” value is reported as 1.1 ug/mL. This compound also returned a mTOR in series [5] of 9459 nM.

In the case of `NCc1ccc(-c2ccc3ncc4ccc(=O)n(-c5ccc(C(=O)N6CCOCC6)cc5)c4c3c2)cc1` [Compound 111], the “Microsomal Stability (rat) T1/2” value in series [1] is more than 30.0 min. The 50% effective concentration (EC50) came out at 285 nM in series [2] and 241 nM in series [4]. In series [3], the “Sol @ pH 7.4” value is reported as 19.8 ug/mL. This compound showed a mTOR in series [5] of 1135 nM.

Take `CNC(=O)c1ccc(-n2c(=O)ccc3cnc4ccc(-c5ccc(Cl)cc5)cc4c32)c(C)c1` [Compound 112]: in series [1], the “Microsomal Stability (rat) T1/2” value worked out at 5 min. The results for the EC50 in series [2] and in series [4] were 179 nM and 76.8 nM, respectively. In addition, in series [3], the “Sol @ pH 7.4” value was found to be 5 ug/mL. The mTOR in series [5] was 3581 nM.

Regarding `Nc1cc(-c2ccc3ncc4ccc(=O)n(-c5ccc(C(=O)N6CCOCC6)cc5)c4c3c2)ccc1Cl` [Compound 113], in series [1], the “Microsomal Stability (rat) T1/2” value was 13.6 min. The EC50 in series [2] was found to be 75.9 nM; in series [4] it was 29.9 nM. In addition, the “Sol @ pH 7.4” value in series [3] is on record as less than 1.0 ug/mL. Moreover, in series [5], the mTOR came out at 1370 nM.

For `O=C(c1ccc(-n2c(=O)ccc3cnc4ccc(-c5ccc(Cl)c(O)c5)cc4c32)cc1)N1CCOCC1` [Compound 114], the “Microsomal Stability (rat) T1/2” value in series [1] is 23.3 min. For the same compound, the EC50 in series [2] was 13.6 nM; in series [4] it was 6.95 nM. The “Sol @ pH 7.4” value in series [3] is given as less than 1.0 ug/mL. For the same compound, in series [5], the mTOR was 431.3 nM.

With `O=C(O)c1cc(-c2ccc3ncc4ccc(=O)n(-c5ccc(C(=O)N6CCOCC6)cc5)c4c3c2)ccc1Cl` [Compound 117], the “Microsomal Stability (rat) T1/2” value in series [1] is recorded as more than 30.0 min. The “Gametocyte EC50” value in series [2] was “Inactive”. Further, the “Sol @ pH 7.4” value in series [3] was more than 80.0 ug/mL. The same compound gave an EC50 in series [4] of 14400 nM. Moreover, in series [5], the mTOR was determined as 4734 nM.

Take `Nc1ccc(-c2ccc3ncc4ccc(=O)n(-c5ccc(C(=O)N6CCOCC6)cc5)c4c3c2)cc1` [Compound 118]: the “Microsomal Stability (rat) T1/2” value in series [1] is reported as more than 30.0 min. Besides, the EC50 in series [2] was 29.6 nM; in series [4] it was 6.6 nM. Besides, in series [3], the “Sol @ pH 7.4” value is less than 1.0 ug/mL. The compound further displayed a mTOR in series [5] of 269.1 nM.

With `O=C(c1ccc(-n2c(=O)ccc3cnc4ccc(-c5ccc(O)cc5)cc4c32)cc1)N1CCOCC1` [Compound 119], the “Microsomal Stability (rat) T1/2” value in series [1] came to 18.4 min. In addition, the EC50 in series [2] amounted to 32.4 nM; in series [4], 7.55 nM. For the same compound, the “Sol @ pH 7.4” value in series [3] is listed as less than 1.0 ug/mL. In addition, the mTOR in series [5] was 75.39 nM.

As for `O=C(c1ccc(-n2c(=O)ccc3cnc4ccc(-c5ccc(CO)cc5)cc4c32)cc1)N1CCOCC1` [Compound 120], in series [1], the “Microsomal Stability (rat) T1/2” value is more than 30.0 min. For the same compound, the results for the EC50 in series [2] and in series [4] were 35.9 nM and 7.5 nM, respectively. In addition, the “Sol @ pH 7.4” value in series [3] is recorded as less than 1.0 ug/mL. In series [5], this compound registered a mTOR of 224.6 nM.

As to `COc1cccc(-c2ccc3ncc4ccc(=O)n(-c5ccc(C(=O)N6CCOCC6)cc5)c4c3c2)c1` [Compound 123], the “Microsomal Stability (rat) T1/2” value in series [1] is 7.3 min. Moreover, the figures for the EC50 in series [2] and in series [4] were 442 nM and 145 nM, respectively. The same compound displayed a mTOR in series [5] of 857 nM.

With `CC1CC1NC(=O)c1ccc(-n2c(=O)ccc3cnc4ccc(-c5ccc(Cl)cc5)cc4c32)cc1` (stereo not drawn) [Compound 176], the EC50 turned out to be 283 nM in series [2] and 90.2 nM in series [4]. Also, the “Sol @ pH 7.4” value in series [3] was less than 0.10 ug/mL. The mTOR in series [5] amounted to 556.2 nM.

For the compound `CC1CC1NC(=O)c1ccc(-n2c(=O)ccc3cnc4ccc(-c5ccc(CN(C)C)cc5)cc4c32)cc1` (stereo not drawn) [Compound 177], in series [2], the EC50 is 902 nM. For the same compound, in series [3], the “Sol @ pH 7.4” value is more than 74.00 ug/mL. In series [5], this compound yielded a mTOR of 9038 nM.

Consider `CC(C)(N)c1ccc(-c2ccc3ncc4ccc(=O)n(-c5ccc(C(=O)N6CCOCC6)cc5)c4c3c2)cc1` [Compound 187], for which the EC50 in series [2] worked out at 4590 nM; in series [4], 1600 nM. Besides, the “Sol @ pH 7.4” value in series [3] came out at 0 ug/mL. Moreover, the mTOR in series [5] is 724.6 nM.

As to `COc1cc(C(=O)NC2CC2)ccc1-n1c(=O)ccc2cnc3ccc(-c4ccc(CN(C)C)cc4)cc3c21` [Compound 190], the “Microsomal Stability (rat) T1/2” value in series [1] is on record as more than 30 min. In series [2], the EC50 came out at 248 nM. Further, the “Sol @ pH 7.4” value in series [3] is more than 77 ug/mL. In series [5], this compound showed a mTOR of 10680 nM.

Turning to `Cc1ccc(C#N)cc1-n1c(=O)n(C)c2cnc3ccc(-c4ccc(F)c(C#N)c4)cc3c21` [Compound 408], the EC50 in series [2] worked out at 305 nM; in series [4], 10 nM. Further, the “Sol @ pH 7.4” value in series [3] was 0 ug/mL. Moreover, the mTOR in series [5] stood at 100000 nM.

For `COc1cc(-c2ccc3ncc4c(c3c2)n(-c2cc(C#N)ccc2C)c(=O)n4C)ccc1F` [Compound 409], the figures for the EC50 in series [2] and in series [4] were 106 nM and 52.9 nM, respectively. In addition, in series [3], the “Sol @ pH 7.4” value came out at 0 ug/mL. Further, the mTOR in series [5] is reported as 50000 nM.

Take `Cc1ccc(C#N)cc1-n1c(=O)n(C)c2cnc3ccc(-c4ccc(Cl)c(C#N)c4)cc3c21` [Compound 410]: the figures for the EC50 in series [2] and in series [4] were 36.3 nM and 2.49 nM, respectively. For the same compound, the “Sol @ pH 7.4” value in series [3] was 0 ug/mL. Moreover, the mTOR in series [5] was 100000 nM.

`Cc1ccc(C#N)cc1-n1c(=O)n(C)c2cnc3ccc(-c4ccc(F)cc4)cc3c21` [Compound 411]: the EC50 was 109 nM in series [2] and 61.4 nM in series [4]. Besides, the “Sol @ pH 7.4” value in series [3] worked out at 0 ug/mL. This compound yielded a mTOR in series [5] of 100000 nM.

Turning to `Cc1ccc(C#N)cc1-n1c(=O)n(C)c2cnc3ccc(-c4cccc(C#N)c4)cc3c21` [Compound 412], the values for the EC50 in series [2] and in series [4] were 39.9 nM and 6.57 nM, respectively. Also, the “Sol @ pH 7.4” value in series [3] amounted to 0 ug/mL. In series [5], this compound returned a mTOR of 100000 nM.

Turning to `Cn1c(=O)n(-c2cccc(C#N)c2)c2c3cc(-c4ccc(CCN)cc4)ccc3ncc21` [Compound 413], the concentration giving a half-maximal response (EC50) in series [2] was 54 nM; in series [4] it was 29.4 nM. The “Sol @ pH 7.4” value in series [3] was 0 ug/mL. In addition, in series [5], the mTOR worked out at 2730 nM.

Take `Cn1c(=O)n(-c2ccc(N3CCNCC3)c(C#N)c2)c2c3cc(-c4ccc(F)cc4)ccc3ncc21` [Compound 414]: the figures for the 50% effective concentration (EC50) in series [2] and in series [4] were 38.7 nM and 14.2 nM, respectively. Moreover, the mTOR in series [5] is 584.2 nM.

As to `Cc1cc(N2CCNCC2)c(C#N)cc1-n1c(=O)n(C)c2cnc3ccc(-c4ccc(Cl)cc4)cc3c21` [Compound 415], the EC50 in series [2] was found to be 18.6 nM; in series [4], 21.4 nM. The mTOR in series [5] was determined as 15870 nM.

On to `Cc1cc(N2CCNCC2)c(C#N)cc1-n1c(=O)n(C)c2cnc3ccc(-c4ccc(F)cc4)cc3c21` [Compound 416], for which the EC50 in series [2] came out at 21.6 nM; in series [4], 39.6 nM. Further, in series [5], the mTOR stood at 930.6 nM.

With `Cn1c(=O)n(-c2cccc(C#N)c2)c2c3cc(-c4ccc(C#N)cc4)ccc3ncc21` [Compound 442], the half-maximal effective concentration (EC50) in series [2] came to 1990 nM; in series [4], 449 nM. In series [5], this compound showed a mTOR of 100000 nM.

Turning to `Cn1c(=O)n(-c2cccc(C#N)c2)c2c3cc(-c4ccc5[nH]cnc5c4)ccc3ncc21` [Compound 445], the EC50 was 735 nM in series [2] and 269 nM in series [4]. For the same compound, in series [5], the mTOR amounted to 630.3 nM.

The values are drawn from US11753408B2, “Compounds and method for blocking transmission of malarial parasite” (The United States of America, as represented by the …, priority 2016, dated 2023).
